Data: ChEMBL document CHEMBL1158839, “Dichotomins J and K, vasodilator cyclic peptides from Stellaria dichotoma” (J Nat Prod, 2005)
Calls of active or inactive are those of the source. The calls are words filed in the database; no cut-off is given here.

Key:
[1] = tested on: Aorta; test: Vasorelaxant activity against norepinephrine-induced contraction in Wistar rat thoracic aorta at 30 uM; type: functional, tissue-based
[2] = tested on: Aorta; test: Vasorelaxant activity against norepinephrine-induced contraction in Wistar rat thoracic aorta at 100 uM; type: functional, tissue-based

SMILES	Activity [1]	Activity [2]
CC[C@@H](C)[C@@H]1NC(=O)CNC(=O)[C@H](C)NC(=O)[C@H](Cc2ccc(O)cc2)NC(=O)[C@H](CC(C)C)NC(=O)[C@H](Cc2ccccc2)NC1=O	Active	
CC[C@@H](C)[C@@H]1NC(=O)[C@H](C(C)C)NC(=O)[C@H](Cc2ccc(O)cc2)NC(=O)[C@H](Cc2ccc(O)cc2)NC(=O)[C@@H]2CCCN2C(=O)[C@H]([C@H](C)CC)NC(=O)[C@H](C(C)C)NC(=O)[C@H](C)NC(=O)[C@@H]2CCCN2C1=O		Active
